According to PubChem BioAssay (NCI):
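Growth conditions: 96-well plates. Treatment: test compound, 48 hours, 5 concentrations. Analysis: linear interpolation between bracketing concentrations; unreached endpoints set to highest concentration. Here, GI50 denotes the concentration required for 50% inhibition of growth. TGI is the concentration that stops growth completely.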

Tests used:
Assay in all cases: inhibition of tumour cell growth, NCI panel, 48 h
SF-295 CNS = system: SF-295 CNS
SN12C renal = system: SN12C renal
RPMI-8226 leukemia = system: RPMI-8226 leukemia
HT29 colon = system: HT29 colon
IGROV1 ovarian = system: IGROV1 ovarian
K-562 leukemia = system: K-562 leukemia
OVCAR-5 ovarian = system: OVCAR-5 ovarian
LOX IMVI melanoma = system: LOX IMVI melanoma
TK-10 renal = system: TK-10 renal
A498 renal = system: A498 renal

| Structure (SMILES) | GI50 (SF-295 CNS) | TGI (SF-295 CNS) | GI50 (SN12C renal) | TGI (SN12C renal) | GI50 (RPMI-8226 leukemia) | TGI (RPMI-8226 leukemia) | GI50 (HT29 colon) | TGI (HT29 colon) | GI50 (IGROV1 ovarian) | TGI (IGROV1 ovarian) | GI50 (K-562 leukemia) | TGI (K-562 leukemia) | GI50 (OVCAR-5 ovarian) | TGI (OVCAR-5 ovarian) | GI50 (LOX IMVI melanoma) | TGI (LOX IMVI melanoma) | GI50 (TK-10 renal) | TGI (TK-10 renal) | GI50 (A498 renal) | TGI (A498 renal) |
| --- | --- | --- | --- | --- | --- | --- | --- | --- | --- | --- | --- | --- | --- | --- | --- | --- | --- | --- | --- | --- |
| CC[N+](CC)(CC)CCCn1c2c(c3ccccc3c1=O)C(=O)c1ccccc1-2 | 7.38 µM | 57.9 µM | 5.59 µM | > 100 µM | 5.2 µM | > 100 µM | 6.3 µM | > 100 µM | 3.1 µM | 24.1 µM | 18.7 µM | > 100 µM | 16.5 µM | 48.6 µM | 4.63 µM | > 100 µM | 1.01 µM | > 100 µM | – | – |
| O=C([CH-]C(=O)c1ccccc1)c1ccccc1.O=C([CH-]C(=O)c1ccccc1)c1ccccc1.[Nd+3].[OH-].[OH3+] | 3.95 µM | 22.8 µM | 12.6 µM | 70.7 µM | 6.04 µM | – | 8.8 µM | 26.2 µM | 11.5 µM | 61.2 µM | 3.31 µM | 19.1 µM | 22.3 µM | 81.5 µM | – | – | 26.4 µM | > 100 µM | 11 µM | 39.6 µM |
| CCOC(=O)C1C(=O)c2ccccc2CN1Cc1ccccc1 (configuration not stated) | – | > 100 µM | – | > 100 µM | – | > 100 µM | – | > 100 µM | – | > 100 µM | – | > 100 µM | – | > 100 µM | – | > 100 µM | – | > 100 µM | – | – |
| Cc1nc2cccc(NCc3ccc(C(=O)NO)cc3)c2c(=O)n1-c1ccccc1 | 1.76 µM | 3.54 µM | 2.14 µM | 5.38 µM | 2.39 µM | > 100 µM | 2.81 µM | 11.6 µM | – | – | 2.52 µM | > 100 µM | 2.13 µM | 6.75 µM | 1.82 µM | 3.35 µM | 1.76 µM | 6.07 µM | 1.7 µM | 3.28 µM |
| COC(=O)Nc1nc2ccccc2c(=O)[nH]1 | – | > 100 µM | – | > 100 µM | – | – | – | > 100 µM | – | > 100 µM | – | > 100 µM | – | > 100 µM | – | – | – | > 100 µM | – | – |
| O=C(O)c1cc2c(cn1)[nH]c1ccccc12 | – | > 100 µM | – | > 100 µM | – | > 100 µM | – | > 100 µM | – | > 100 µM | – | > 100 µM | – | > 100 µM | – | > 100 µM | – | > 100 µM | – | – |
| CC1NOC(=O)C1N=Nc1ccccc1Cl (configuration not stated) | – | > 100 µM | – | > 100 µM | – | 54.7 µM | – | – | – | > 100 µM | – | > 100 µM | – | > 100 µM | – | > 100 µM | – | > 100 µM | – | 49.3 µM |
| COc1cc2c(/C=C3/C(=O)Nc4ccccc43)c(Cl)n(Cc3ccccc3[N+](=O)[O-])c2cc1C | 6.9 µM | 22.8 µM | 9.42 µM | 56.1 µM | 3.49 µM | > 100 µM | 1.93 µM | 24.4 µM | 7.46 µM | > 100 µM | – | – | 15.6 µM | 35.4 µM | 9.17 µM | 24 µM | 12.4 µM | 34.1 µM | 12.4 µM | 32.6 µM |
| COc1ccc(-c2nc(-c3ccccc3)c(-c3ccccc3)n2C2CC2)cc1OC1CCCC1 | 67.5 µM | > 165 µM | 128 µM | > 165 µM | 48.8 µM | > 165 µM | 85.1 µM | > 165 µM | 77.8 µM | > 165 µM | 11.5 µM | > 165 µM | > 165 µM | > 165 µM | 15.1 µM | > 165 µM | – | – | 9.57 µM | > 165 µM |
| CCOC(=O)C(C)c1cc(C2(C)OCCO2)c(C)o1 (configuration not stated) | – | > 100 µM | – | > 100 µM | – | > 100 µM | – | – | – | > 100 µM | – | > 100 µM | – | > 100 µM | – | > 100 µM | – | > 100 µM | – | – |
| N.N.NC(CS)C(=O)[O-].NC(CS)C(=O)[O-].[Pt+4] (configuration not stated) | > 50 µM | > 50 µM | > 50 µM | > 50 µM | > 50 µM | > 50 µM | > 50 µM | > 50 µM | > 50 µM | > 50 µM | > 50 µM | > 50 µM | > 50 µM | > 50 µM | > 50 µM | > 50 µM | > 50 µM | > 50 µM | – | – |
| C=C(CN1CCc2ccccc2C1)c1ccc(C(=O)Nc2ccc(N)cc2)cc1 | 16.5 µM | 59.4 µM | 30.1 µM | > 100 µM | 2.5 µM | 19 µM | 19.6 µM | 43.2 µM | – | – | 1.94 µM | > 100 µM | 29.9 µM | > 100 µM | 17.7 µM | 55.7 µM | 26.3 µM | > 100 µM | 21.4 µM | > 100 µM |
| C[C@]12CC[C@@H]3c4ccc(O)cc4CC[C@H]3[C@@H]1CC[C@@H]2NS(=O)(=O)Cc1ccc(Cl)cc1 | 1.72 µM | 3.56 µM | 1.7 µM | 3.36 µM | 3.14 µM | 15.5 µM | 3.34 µM | 10.8 µM | 2.99 µM | 10.4 µM | 2.99 µM | 21.3 µM | 3.76 µM | 14.2 µM | – | – | 3.5 µM | 14.9 µM | 1.29 µM | 3.87 µM |
| O=C(Oc1ccc(CCl)cc1)c1ccccc1 | 0.185 µM | 0.543 µM | – | – | 0.0615 µM | 0.288 µM | 0.149 µM | 0.289 µM | 0.212 µM | 0.419 µM | – | – | 0.161 µM | 0.302 µM | 0.158 µM | 0.305 µM | 0.174 µM | 0.33 µM | 0.221 µM | 1.83 µM |
| Nc1c(-c2nc3ccccc3[nH]2)sc(=S)n1-c1ccccc1 | – | > 100 µM | – | > 100 µM | – | > 100 µM | – | > 100 µM | – | > 100 µM | – | > 100 µM | – | > 100 µM | – | – | – | – | – | > 100 µM |
| S=C(N/N=C/c1ccccn1)Nc1ccccn1 | – | – | 1.95 µM | > 100 µM | 1.44 µM | > 100 µM | 3.1 µM | > 100 µM | 3.17 µM | > 100 µM | 1.84 µM | > 100 µM | 3.86 µM | > 100 µM | 0.705 µM | 23.1 µM | 2.93 µM | > 100 µM | 1.62 µM | 33.9 µM |
